In US4950466A, “Reduction of the severity of 3'-azido-3'-deoxythymidine-induced anemia using a combination of benzylacyclouridine and dipyridamole” (priority 1988, dated 1990):

Experiments:
[1] = Blood counts (hemoglobin, hematocrit, white blood cells) in mice receiving AZT, BAU and/or DPR; pooled blood, Coulter Counter; assay type: in vivo, Female Balb/c mice; parameters: Hb (hemoglobin) / Hct (hematocrit): unit not given here
Protocol: For oral administration, BAU was dissolved in water to achieve a final concentration of 0.3 mg/mL. For intraperitoneal administration, BAU was dissolved in dimethylsulfoxide (DMSO) to achieve final concentrations of 60, 100, or 120 mg/mL.
The solution was centrifuged at 15,000 rpm for 20 minutes.
(§1) Female Balb/c mice, 6-12 weeks old, were purchased from the Animal Care Facility of the Roger Williams Cancer Center. The animals were randomly divided into eight groups. Six of the treatment protocols were performed in duplicate. Each group contained either eight or nine animals. The animals were weighed once weekly. Food and water was available ad libitum. Blood samples were obtained from the tail vein. The first blood sample was obtained on Day 0 and subsequent samples were obtained on Days 19, 27, 34 and 44, 48, 54 and 68 after the initiation of drug treatment. With each sampling, approximately 100 ul of blood was removed from each animal. The blood obtained from the animals in each group was pooled and analyzed by Coulter Counter. On each sample, hemoglobin, hematocrit, and white blood cell count were determined. The mean red cell volume was calculated. The Treatment Groups were as follows:
DMSO was given ip, 0.O1 mL/5 grams body weight, once weekly.
Group 4--BAU 240 mg/kg, ip, once weekly.
This corresponds to a daily administered dose of 43 mg/kg.
The concentration was 0.69 mg/ml which corresponds to an administered dose of 100 mg/kg/day.

[2] = Weekly body weight of treated mice; assay type: in vivo, Female Balb/c mice; conditions: measured each week
Protocol: as §1
Body weights of the animals in the treatment groups were measured each week.

[3] = system: erythroid burst-forming cells; conditions: in vitro; cited from earlier work
[4] = system: human immunodifficiency virus reverse transcriptase; conditions: cited from earlier work
[5] = system: granulocyte macrophage colony forming cells; conditions: in vitro; cited from earlier work
uridine phosphorylase = conditions: cited from earlier work
[6] = Oral bioavailability of BAU; conditions: in vivo, 43 mg/kg, drinking water, read-out: bioavailability of BAU administered orally
Protocol: Group 7--AZT administered in the drinking water (1 mg/mL) and BAU administered in the same container of drinking water (0.3 mg/mL). This corresponds to a daily administered dose of 43 mg/kg. The bioavailability of BAU administered orally was 80%. Therefore, the bioavailable dose of BAU administered to this group was 240 mg/kg/week.

[7] = system: human bone marrow progenitor (HBMP) cells; conditions: in vitro; cited from earlier work
[8] = human, in vivo; cited from earlier work
[9] = Day 0, AZT 1 mg/mL and/or DPR 0.69 mg/mL in drinking water, no BAU (Groups 3, 8, 9)
[10] = Day 0, AZT 1 mg/mL in drinking water (145 mg/kg/day) + DMSO ip once weekly (Group 2)
[11] = Day 19, AZT 1 mg/mL and/or DPR 0.69 mg/mL in drinking water, no BAU (Groups 3, 8, 9)
[12] = Day 19, AZT 1 mg/mL in drinking water (145 mg/kg/day) + DMSO ip once weekly (Group 2)
[13] = Day 27, AZT 1 mg/mL and/or DPR 0.69 mg/mL in drinking water, no BAU (Groups 3, 8, 9)
[14] = Day 27, AZT 1 mg/mL in drinking water (145 mg/kg/day) + DMSO ip once weekly (Group 2)
[15] = Day 34, AZT 1 mg/mL and/or DPR 0.69 mg/mL in drinking water, no BAU (Groups 3, 8, 9)
[16] = Day 34, AZT 1 mg/mL in drinking water (145 mg/kg/day) + DMSO ip once weekly (Group 2)
[17] = Day 48, AZT 1 mg/mL in drinking water (145 mg/kg/day) + DMSO ip once weekly (Group 2)
[18] = Day 48, AZT 1 mg/mL in drinking water (Group 3)
[19] = Day 0, BAU 240 mg/kg ip once weekly, without (Group 4) or with (Group 5) AZT 1 mg/mL in drinking water
[20] = Day 19, BAU 240 mg/kg ip once weekly, without (Group 4) or with (Group 5) AZT 1 mg/mL in drinking water
[21] = Day 27, BAU 240 mg/kg ip once weekly, without (Group 4) or with (Group 5) AZT 1 mg/mL in drinking water
[22] = Day 34, BAU 240 mg/kg ip once weekly, without (Group 4) or with (Group 5) AZT 1 mg/mL in drinking water
[23] = Day 48, BAU 240 mg/kg ip once weekly, without (Group 4) or with (Group 5) AZT 1 mg/mL in drinking water
[24] = Day 44, DPR 0.69 mg/mL with or without AZT 1 mg/mL in drinking water (Groups 8, 9)
[25] = Day 54, DPR 0.69 mg/mL with or without AZT 1 mg/mL in drinking water (Groups 8, 9)
[26] = Day 68, DPR 0.69 mg/mL with or without AZT 1 mg/mL in drinking water (Groups 8, 9)

Q: With `Cc1cn([C@H]2C[C@H](N=[N+]=[N-])[C@@H](CO)O2)c(=O)[nH]c1=O` [AZT, 3'-Azido-3'-deoxythymidine] as the compound, how does the “Hb (hemoglobin)” value [1, 9] read?
A: 17.3

Q: What about the “Hct (hematocrit)” value [1, 9] of the same compound?
A: 43.0

Q: And the “WBC (white blood cell count)” value [1, 9]?
A: 8.4

Q: What about the “Hb (hemoglobin)” value [1, 10] of the same compound?
A: 17.3

Q: And the “Hct (hematocrit)” value [1, 10]?
A: 49.0

Q: What about the “WBC (white blood cell count)” value [1, 10] of the same compound?
A: 10.1

Q: And the “Hb (hemoglobin)” value [1, 11]?
A: 13.7

Q: And the “Hct (hematocrit)” value [1, 11]?
A: 43.0

Q: What about the “Hb (hemoglobin)” value [1, 12] of the same compound?
A: 12.8

Q: What about the “Hct (hematocrit)” value [1, 12] of the same compound?
A: 36.0

Q: And the “WBC (white blood cell count)” value [1, 12]?
A: 21.2

Q: And the “Hb (hemoglobin)” value [1, 13]?
A: 13.6

Q: What about the “Hct (hematocrit)” value [1, 13] of the same compound?
A: 43

Q: What about the “WBC (white blood cell count)” value [1, 13] of the same compound?
A: 13.6

Q: What about the “Hb (hemoglobin)” value [1, 14] of the same compound?
A: 13

Q: What about the “Hct (hematocrit)” value [1, 14] of the same compound?
A: 40

Q: What about the “WBC (white blood cell count)” value [1, 14] of the same compound?
A: 11.6

Q: And the “Hb (hemoglobin)” value [1, 15]?
A: 13.9

Q: What about the “Hct (hematocrit)” value [1, 15] of the same compound?
A: 42

Q: What about the “WBC (white blood cell count)” value [1, 15] of the same compound?
A: 13.3

Q: What about the “Hb (hemoglobin)” value [1, 16] of the same compound?
A: 11.6

Q: What about the “Hct (hematocrit)” value [1, 16] of the same compound?
A: 35

Q: What about the “WBC (white blood cell count)” value [1, 16] of the same compound?
A: 11.5

Q: And the “Hb (hemoglobin)” value [1, 17]?
A: 11.0

Q: And the “Hct (hematocrit)” value [1, 17]?
A: 33

Q: And the “WBC (white blood cell count)” value [1, 17]?
A: 5.0

Q: And the “Hb (hemoglobin)” value [1, 18]?
A: 13.2

Q: And the “Hct (hematocrit)” value [1, 18]?
A: 34

Q: And the “WBC (white blood cell count)” value [1, 18]?
A: 5.6

Q: What about the “nature of anemia produced in mice” value ([1]; mice) of the same compound?
A: typical of AZT induced anemia in humans

Q: And the “body weight over time” value [2]?
A: tended to lose weight as their anemia increased over time

Q: And the “inhibition of erythroid burst-forming cells” value [3]?
A: consistently inhibit granulocyte macrophage colony forming cells and erythroid burst-forming cells in dose-dependent fashion

Q: What about the “inhibition of HIV reverse transcriptase” value [4] of the same compound?
A: inhibits the human immunodifficiency virus reverse transcriptase

Q: And the “inhibition of granulocyte macrophage colony forming cells” value [5]?
A: consistently inhibit granulocyte macrophage colony forming cells and erythroid burst-forming cells in dose-dependent fashion

Q: What does the source list for `O=c1[nH]c(=O)n(COCCO)cc1Cc1ccccc1` [BAU, 5-benzylacyclouridine]?
A: Hb (hemoglobin) [1, 19]: 18.3; Hct (hematocrit) [1, 19]: 52.0; WBC (white blood cell count) [1, 19]: 8.8; Hb (hemoglobin) [1, 20]: 17.3; Hct (hematocrit) [1, 20]: 50.0; WBC (white blood cell count) [1, 20]: 10.8; Hb (hemoglobin) [1, 21]: 16.2; Hct (hematocrit) [1, 21]: 51; WBC (white blood cell count) [1, 21]: 6.6; Hb (hemoglobin) [1, 22]: 17.2; Hct (hematocrit) [1, 22]: 50; WBC (white blood cell count) [1, 22]: 7.9; Hb (hemoglobin) [1, 23]: 16.6; Hct (hematocrit) [1, 23]: 49; WBC (white blood cell count) [1, 23]: 6.4; inhibition of cleavage of 5-fluoro-2'-deoxyuridine (uridine phosphorylase): inhibits the cleavage of the antineoplastic 5-fluoro-2'-deoxyuridine; inhibition of uridine phosphorylase (uridine phosphorylase; cleavage of uridine to uracil): inhibitor of the enzyme uridine phosphorylase; bioavailability [6]: 80%

Q: For `OCCN(CCO)c1nc(N2CCCCC2)c2nc(N(CCO)CCO)nc(N3CCCCC3)c2n1` [DPR, 2,2',2"2'"-(4,8-dipiperidinopyimidol[5,4-d]pyrimidene-2,6-diyldinitrilo) tetraethanol], which “Hb (hemoglobin)” value [1, 9] is on record?
A: 16.5

Q: And the “Hct (hematocrit)” value [1, 9]?
A: 48.0

Q: What about the “WBC (white blood cell count)” value [1, 9] of the same compound?
A: 5.9

Q: What about the “Hb (hemoglobin)” value [1, 11] of the same compound?
A: 14.3

Q: And the “Hct (hematocrit)” value [1, 11]?
A: 49

Q: What about the “WBC (white blood cell count)” value [1, 11] of the same compound?
A: 11.1

Q: And the “Hb (hemoglobin)” value [1, 13]?
A: 15.5

Q: What about the “Hct (hematocrit)” value [1, 13] of the same compound?
A: 45

Q: What about the “WBC (white blood cell count)” value [1, 13] of the same compound?
A: 10

Q: And the “Hb (hemoglobin)” value [1, 15]?
A: 14.8

Q: And the “Hct (hematocrit)” value [1, 15]?
A: 45

Q: And the “WBC (white blood cell count)” value [1, 15]?
A: 9.4

Q: What about the “Hb (hemoglobin)” value [1, 24] of the same compound?
A: 14.6

Q: And the “Hct (hematocrit)” value [1, 24]?
A: 45

Q: What about the “WBC (white blood cell count)” value [1, 24] of the same compound?
A: 9.1

Q: And the “Hb (hemoglobin)” value [1, 25]?
A: 15.4

Q: What about the “Hct (hematocrit)” value [1, 25] of the same compound?
A: 46

Q: What about the “WBC (white blood cell count)” value [1, 25] of the same compound?
A: 7.6

Q: What about the “Hb (hemoglobin)” value [1, 26] of the same compound?
A: 15.7

Q: What about the “Hct (hematocrit)” value [1, 26] of the same compound?
A: 45

Q: And the “WBC (white blood cell count)” value [1, 26]?
A: 9.3

Q: For `Nc1ccn([C@@H]2O[C@H](CO)[C@@H](O)[C@H]2O)c(=O)n1` [cytidine], which “reversal of toxic effect of AZT in HBMP cells” value [7] is on record?
A: could reverse the toxic effect of AZT in HBMP cells

Q: With `O=c1ccn([C@@H]2O[C@H](CO)[C@@H](O)[C@H]2O)c(=O)[nH]1` [uridine] as the compound, how does the body temperature [8] read?
A: rapid and potentially dangerous rises in body temperature

Q: What about the “elimination from the plasma” value [8] of the same compound?
A: rapidly eliminated from the plasma

Q: What about the “reversal of toxic effect of AZT in HBMP cells” value [7] of the same compound?
A: could reverse the toxic effect of AZT in HBMP cells
